This passage reports logP, solubility and log10 OH rate constant (cm³/molecule/s) results from the OPERA property sets (Mansouri et al. 2018).

Converted amounts (≈) assume the structure as drawn.

What is called logP is a log measure of how a compound divides between an organic and an aqueous phase. High values mean higher lipophilicity, low ones lower lipophilicity. As a reminder, the solubility is how much of the substance goes into solution per volume. High values mean a readily soluble substance, low ones a poorly soluble substance.

Details in the first series: not given
With `CCNc1nc(N)nc(Cl)n1`, the logP turned out to be 1.15 and the solubility was 3.86 mM (≈ 670 µg/mL).

In the case of `N#CCCCCCC#N`, the logP was determined as 0.05.

For `Cc1ccc2c(ccc3ccccc32)c1`, the logP was determined as 4.86.

`Cc1nc(N)c2ncn([C@@H]3O[C@H](CO)C[C@@H]3F)c2n1` registered a logP of 0.12.

In turn, `c1ccc2cc3cc4c(ccc5ccccc54)cc3cc2c1` came in with a logP of 6.81.

`C[Si](C)(C)O[Si](C)(C)O[Si](C)(C)O[Si](C)(C)C` gave a logP of 8.21.

Consider `CNC[C@H](O)c1ccc(O)c(O)c1`, for which the logP is -1.2.

`Clc1cc(Cl)c2cc(Cl)ccc2c1` registered a logP of 5.35 and a solubility of 0.000278 mM (≈ 0.0644 µg/mL).

For the compound `CC(C)COC(=O)c1cc(=O)[nH]c(=O)[nH]1`, the logP stood at 1.01.

Consider `Clc1cccc2c1Oc1c(Cl)c(Cl)c(Cl)c(Cl)c1O2`, for which the logP was 6.5.

As to `Nc1ccc([N+](=O)[O-])cc1Cl`, the logP came out at 2.14.

In the case of `Nc1ccc2nc(S(N)(=O)=O)sc2c1`, the logP is 0.52.

In the case of `Cc1cc(C)cc(NCc2cnc3nc(N)nc(N)c3c2C)c1`, the logP came out at 2.11.

As to `N#CCCCC#N`, the logP was -0.72.

The compound `O=C1c2ccccc2C(=O)c2c(O)cccc21` showed a logP of 3.52.

For the compound `Cc1ccc(S(=O)(=O)N(C)C(=O)c2ccccc2)cc1`, the lipophilicity (logP) came to 2.95.

The series is the same for the next values; noted with them: 20 °C.
The compound `ClCC(Br)CBr` (centres undefined) came in with a solubility of 4.69 mM (≈ 1110 µg/mL).

`CC(CO)(CO)[N+](=O)[O-]` had a solubility of 5920 mM (≈ 800000 µg/mL).

As to `ClC(Br)Br`, the solubility was 12.5 mM (≈ 2600 µg/mL).

Compound `COP(=O)(OC)OC(=CCl)c1cc(Cl)c(Cl)cc1Cl` displayed a solubility of 0.0301 mM (≈ 11 µg/mL).

Consider `CCOC(C)(C)CC`, for which the solubility worked out at 3.44 mM (≈ 400 µg/mL).

Take `c1ccc(C2CO2)cc1` (centres undefined): the solubility stood at 25 mM (≈ 3000 µg/mL).

In turn, `Clc1cccc2c1Oc1c(Cl)c(Cl)c(Cl)c(Cl)c1O2` gave a solubility of 3.37e-07 mM (≈ 0.00012 µg/mL).

The series is the same for the next values; noted with them: 22 °C.
Turning to `CCCCC(CC)COC(=O)CCCCC(=O)OCC(CC)CCCC` (centres undefined), the solubility was 0.0021 mM (≈ 0.78 µg/mL).

Staying with this series, now noted: 22.0 °C.
In the case of `CCCCCCl`, the log10 OH rate constant (cm³/molecule/s) was -11.5.

Staying with this series, now noted: 23 °C.
On to `NC(=O)c1c(Cl)cccc1Cl`, for which the solubility came out at 14.4 mM (≈ 2730 µg/mL).

Staying with this series, now noted: 23.0 °C.
For the compound `CC1=CC[C@@H]2[C@H]3[C@@H](C(C)C)CC[C@]2(C)[C@@H]13`, the log10 OH rate constant (cm³/molecule/s) was -10.

On to `CCCCCC=O`, for which the log10 OH rate constant (cm³/molecule/s) was -10.5.

The series is the same for the next values; noted with them: 24.0 °C.
On to `Clc1cccc2c1Oc1ccccc1O2`, for which the log10 OH rate constant (cm³/molecule/s) was -11.3.

The series is the same for the next values; noted with them: 25 °C.
`CCCCCCCCOC(=O)c1ccccc1C(=O)OCCCCCCCC` gave a solubility of 5.63e-05 mM (≈ 0.022 µg/mL).

The compound `O=[N+]([O-])c1ccccc1` had a solubility of 17 mM (≈ 2090 µg/mL).

In turn, `Clc1ccc(-c2ccccc2Cl)cc1` returned a solubility of 0.00524 mM (≈ 1.17 µg/mL).

As for `CCCCCO[N+](=O)[O-]`, the solubility is 2.7 mM (≈ 360 µg/mL).

Regarding `CCC(C)n1c(=O)[nH]c(C)c(Br)c1=O` (centres undefined), the solubility was determined as 3.12 mM (≈ 815 µg/mL).

`CCCCCCO[N+](=O)[O-]` yielded a solubility of 0.747 mM (≈ 110 µg/mL).

The compound `ClC1=C(Cl)C(Cl)(Cl)C(Cl)=C1Cl` registered a solubility of 0.0066 mM (≈ 1.8 µg/mL).

Consider `CC(Br)CBr` (centres undefined), for which the solubility worked out at 7.15 mM (≈ 1440 µg/mL).

On to `CCCCC(CC)CO` (centres undefined), for which the solubility worked out at 6.02 mM (≈ 785 µg/mL).

In turn, `COCCc1ccc(OCC(O)CNC(C)C)cc1` (centres undefined) yielded a solubility of 63.2 mM (≈ 16900 µg/mL).

Compound `Oc1nc(O)nc(O)n1` returned a solubility of 15.5 mM (≈ 2000 µg/mL).

The compound `O=C1OC(=O)c2ccccc21` gave a solubility of 41.9 mM (≈ 6200 µg/mL).

`C#CCN1C(=O)COc2cc(F)c(N3C(=O)C4=C(CCCC4)C3=O)cc21` came in with a solubility of 0.00505 mM (≈ 1.79 µg/mL).

As to `ClC1=C(Cl)C2(Cl)C3C4OC4C(Cl)C3C1(Cl)C2(Cl)Cl` (centres undefined), the solubility amounted to 0.000514 mM (≈ 0.2 µg/mL).

In the case of `Clc1c(Cl)c(Cl)c2c(oc3c(Cl)c(Cl)c(Cl)c(Cl)c32)c1Cl`, the solubility turned out to be 2.61e-09 mM (≈ 1.16e-06 µg/mL).

For `CC(C)c1ccccc1`, the solubility came out at 0.51 mM (≈ 61.3 µg/mL).

Compound `ClC(Cl)=C(Cl)C(Cl)=C(Cl)Cl` registered a solubility of 0.0123 mM (≈ 3.2 µg/mL).

Regarding `Cc1ccc2c(ccc3ccccc32)c1`, the solubility stood at 0.00146 mM (≈ 0.28 µg/mL).

`C[Si](C)(C)O[Si](C)(C)O[Si](C)(C)O[Si](C)(C)C` gave a solubility of 2.17e-05 mM (≈ 0.00674 µg/mL).

Regarding `O=C1c2ccccc2C(=O)c2c(O)cccc21`, the solubility came out at 0.0379 mM (≈ 8.5 µg/mL).

`CNC(=O)Oc1cc(C)cc(C(C)C)c1` gave a solubility of 0.439 mM (≈ 91 µg/mL).

The same series, now with this note: 25.0 °C.
As to `CCCCCBr`, the log10 OH rate constant (cm³/molecule/s) is -11.4.

With `CCCC=O`, the log10 OH rate constant (cm³/molecule/s) is -10.6.

Regarding `C=CC(C)(C)O`, the log10 OH rate constant (cm³/molecule/s) is -10.2.

For `CCCCCC(C)=O`, the log10 OH rate constant (cm³/molecule/s) was -10.9.

In the case of `CCC(C)Cl` (centres undefined), the log10 OH rate constant (cm³/molecule/s) was -11.6.

Consider `Oc1ccc2ccccc2c1`, for which the log10 OH rate constant (cm³/molecule/s) is -9.77.

In the case of `FC(F)C(F)F`, the log10 OH rate constant (cm³/molecule/s) is -14.2.

As for `FC(C(F)(F)F)C(F)(F)F`, the log10 OH rate constant (cm³/molecule/s) was -14.8.

On to `OCC(F)(F)C(F)(F)C(F)(F)F`, for which the log10 OH rate constant (cm³/molecule/s) was -13.

Regarding `CCNC(=O)OC`, the log10 OH rate constant (cm³/molecule/s) was -11.

As for `C=C(C)OC(C)=O`, the log10 OH rate constant (cm³/molecule/s) was -10.2.

For `C=C(C)C(CC=O)CCC(C)=O` (centres undefined), the log10 OH rate constant (cm³/molecule/s) is -9.96.

In the case of `CC(C)(C)Cl`, the log10 OH rate constant (cm³/molecule/s) was -12.4.

As to `COCC(C)O` (centres undefined), the log10 OH rate constant (cm³/molecule/s) was -10.7.

The series is the same for the next values; noted with them: 27.0 °C.
As to `O=Cc1ccoc1`, the log10 OH rate constant (cm³/molecule/s) was -10.3.

The series is the same for the next values; noted with them: 30 °C.
Turning to `COc1ccccc1[N+](=O)[O-]`, the solubility was found to be 11 mM (≈ 1690 µg/mL).

Take `Fc1ccccc1`: the solubility is 16 mM (≈ 1540 µg/mL).
